Experimental data published in the NIST ThermoML archive (doi:10.1021/acs.jced.9b00424).

Assays:
[1] = xn = mol fraction of the nth substance listed; conditions: x1 = 1; for viscosity: 100 kPa, Concentric cylinders viscometry; for viscosity / mass density: Liquid; for mass density: 101 kPa, Vibrating tube method; for surface tension liquid-gas: Pendant drop shape

CC(C)[C@@H]1CC[C@@H](C)C[C@H]1O (racemic) [DL-menthol]
Conditions	mass density [kg/m3]	viscosity [mPa·s]
303.15 K, 100 kPa, Metastable liquid, Concentric cylinders viscometry	–	33.9
303.15 K, 101 kPa, Metastable liquid, Vibrating tube method	898.2	–
308.15 K, 100 kPa, Concentric cylinders viscometry, Liquid	–	23.19
308.15 K, 101 kPa, Vibrating tube method, Liquid	892.2	–
313.15 K, 100 kPa, Concentric cylinders viscometry, Liquid	–	16.44
313.15 K, 101 kPa, Vibrating tube method, Liquid	886.4	–
318.15 K, 100 kPa, Concentric cylinders viscometry, Liquid	–	12
318.15 K, 101 kPa, Vibrating tube method, Liquid	881	–
323.15 K, 100 kPa, Concentric cylinders viscometry, Liquid	–	9
323.15 K, 101 kPa, Vibrating tube method, Liquid	875.8	–
328.15 K, 100 kPa, Concentric cylinders viscometry, Liquid	–	6.92
328.15 K, 101 kPa, Vibrating tube method, Liquid	870.8	–
333.15 K, 100 kPa, Concentric cylinders viscometry, Liquid	–	5.43
333.15 K, 101 kPa, Vibrating tube method, Liquid	866.2	–
338.15 K, 100 kPa, Concentric cylinders viscometry, Liquid	–	4.34
338.15 K, 101 kPa, Vibrating tube method, Liquid	861.7	–
343.15 K, 100 kPa, Concentric cylinders viscometry, Liquid	–	3.53
343.15 K, 101 kPa, Vibrating tube method, Liquid	857.6	–
348.15 K, 100 kPa, Concentric cylinders viscometry, Liquid	–	2.92
348.15 K, 101 kPa, Vibrating tube method, Liquid	853.7	–
353.15 K, 100 kPa, Concentric cylinders viscometry, Liquid	–	2.446
353.15 K, 101 kPa, Vibrating tube method, Liquid	850	–

surface tension liquid-gas [mN/m]
Conditions	303.79 K	308.76 K	314.03 K	318.76 K	323.45 K	328.55 K	333.09 K
Metastable liquid, Pendant drop shape	21.82	–	–	–	–	–	–
Pendant drop shape, Liquid	–	21.35	20.44	19.91	19.18	18.76	18.15

CC(C)[C@@H]1CC[C@@H](C)C[C@H]1O [DL-menthol] + CCCCCCCC(=O)O
[1]
Conditions	mass density [kg/m3]	surface tension liquid-gas [mN/m]	viscosity [mPa·s]
303.15 K	898.2	–	33.9
303.79 K	–	21.82	–
308.15 K	892.2	–	23.19
308.76 K	–	21.35	–
313.15 K	886.4	–	16.44
314.03 K	–	20.44	–
318.15 K	881	–	12
318.76 K	–	19.91	–
323.15 K	875.8	–	9
323.45 K	–	19.18	–
328.15 K	870.8	–	6.92
328.55 K	–	18.76	–
333.09 K	–	18.15	–
333.15 K	866.2	–	5.43
338.15 K	861.7	–	4.34
343.15 K	857.6	–	3.53
348.15 K	853.7	–	2.92
353.15 K	850	–	2.446

CCCCCCCC(=O)O [octanoic acid]
Liquid, Pendant drop shape
Conditions	surface tension liquid-gas [mN/m]
297.82 K	30.95
302.68 K	30.04
308.49 K	28.56
312.93 K	27.56
317.8 K	26.06
322.15 K	24.99
327.39 K	24.46
331.72 K	23.43

Liquid
Conditions	mass density [kg/m3]	viscosity [mPa·s]
298.15 K, 100 kPa, Concentric cylinders viscometry	–	5.17
298.15 K, 101 kPa, Vibrating tube method	917.2	–
303.15 K, 100 kPa, Concentric cylinders viscometry	–	4.54
303.15 K, 101 kPa, Vibrating tube method	910.3	–
308.15 K, 100 kPa, Concentric cylinders viscometry	–	4.01
308.15 K, 101 kPa, Vibrating tube method	903.8	–
313.15 K, 100 kPa, Concentric cylinders viscometry	–	3.59
313.15 K, 101 kPa, Vibrating tube method	897.6	–
318.15 K, 100 kPa, Concentric cylinders viscometry	–	3.2
318.15 K, 101 kPa, Vibrating tube method	891.7	–
323.15 K, 100 kPa, Concentric cylinders viscometry	–	2.88
323.15 K, 101 kPa, Vibrating tube method	886.2	–
328.15 K, 100 kPa, Concentric cylinders viscometry	–	2.609
328.15 K, 101 kPa, Vibrating tube method	880.9	–
333.15 K, 100 kPa, Concentric cylinders viscometry	–	2.372
333.15 K, 101 kPa, Vibrating tube method	876	–
338.15 K, 100 kPa, Concentric cylinders viscometry	–	2.166
338.15 K, 101 kPa, Vibrating tube method	871.4	–
343.15 K, 100 kPa, Concentric cylinders viscometry	–	1.985
343.15 K, 101 kPa, Vibrating tube method	867.1	–
348.15 K, 100 kPa, Concentric cylinders viscometry	–	1.826
348.15 K, 101 kPa, Vibrating tube method	863	–
353.15 K, 100 kPa, Concentric cylinders viscometry	–	1.683
353.15 K, 101 kPa, Vibrating tube method	859.3	–
